Data as given in patent publication US20240309016A1, “MACROCYCLIC HETEROCYCLE COMPOUNDS AND USE THEREOF” (TAKEDA PHARMACEUTICAL COMPANY LIMITED, priority 2023, published 2024).

target: T1, human OX2 receptor (Homo sapiens, UniProt O43614); test: Measurement of orexin type 2 receptor agonist activity (Experimental Example 2; Fluo-4 AM calcium fluorescence, FDSS μCELL); assay type: cell-based; conditions: compound at 3 μM; CHO cells expressing human OX2 receptor; DMSO = 0%, 10 nM orexin A (human) = 100%
T1 construct: expressed in transfected cells
T1 sequence (O43614 1-444): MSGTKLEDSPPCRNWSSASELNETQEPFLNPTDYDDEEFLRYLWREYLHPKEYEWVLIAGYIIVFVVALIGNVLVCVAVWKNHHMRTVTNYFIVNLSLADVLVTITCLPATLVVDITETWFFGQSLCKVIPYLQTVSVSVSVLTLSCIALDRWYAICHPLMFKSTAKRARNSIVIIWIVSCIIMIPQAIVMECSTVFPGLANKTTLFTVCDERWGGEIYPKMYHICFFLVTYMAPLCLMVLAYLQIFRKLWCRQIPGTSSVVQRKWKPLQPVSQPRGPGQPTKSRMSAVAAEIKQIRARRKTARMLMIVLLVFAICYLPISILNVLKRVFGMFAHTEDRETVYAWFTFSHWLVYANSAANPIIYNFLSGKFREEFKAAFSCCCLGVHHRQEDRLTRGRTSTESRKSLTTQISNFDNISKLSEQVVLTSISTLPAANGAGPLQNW
Procedure: In order to obtain cell clones that stably express human orexin type 2 receptor, human orexin type 2 (residues 1-444, NCBI Reference Sequence: AK314279) was constructed in a pcDNA3.1 (+) vector (Invitrogen) to express in mammalian cells. This plasmid DNA was transfected into CHO-K1 cells by electroporation, and stable clones were obtained by limiting dilution using resistance to G418 as a selection marker.
CHO cells in which human OX2 receptor was forcibly expressed were seeded at 10,000 cells/well into a 384-well black transparent bottom plate (BD falcon), and were incubated at 37° C., 5% CO2 for 1 day after incubation at room temperature for 30 minutes. After removing the cell plate medium, assay buffer containing calcium indicator A (HBSS (Thermo Fisher Scientific), 20 mM HEPES (Thermo Fisher Scientific), 0.1% BSA (Sigma-Aldrich), 2.5 μg/mL Fluo-4 AM (Dojin Kagaku), 0.08% Pluronic F127 (Dojin Kagaku), 1.25 mM probenecid (Dojin Kagaku)) was added at 30 μL/well. After incubation in a 5% CO2 incubator at 37° C. for 30 minutes, it was incubated at room temperature for another 30 minutes. Add 10 μL/well of the test compound diluted with assay buffer B (HBSS, 20 mM HEPES, 0.1% BSA), and use FDSS μCELL (Hamamatsu Photonics) to measure the fluorescence value every 1 second for 1 minute, and then every 2 seconds for 1 minute. It was measured for 1 minute and 40 seconds. The amount of fluorescence value when DMSO is added instead of the test compound is defined as 0%, and the amount of fluorescence value when orexin A (human) (Peptide Institute) with a final concentration of 10 nM is added is defined as 100%. The activity (%) of the test compound was calculated. Table 2-1, 2-2, 2-3, and 2-4 show the activity of each compound at a concentration of 3 μM.

| OX2R agonist activity (3 μM, %) [%] | Compound |
| --- | --- |
| 100 | CCS(=O)(=O)N[C@@H]1[C@@H]2Cc3cccc(c3F)Oc3nc(c(F)cc3F)CNC(=O)N2CC1(F)F [Example 21, N-[(15aS,16R)-5,7,17,17,20-pentafluoro-1-oxo-2,3,15a,16,17,18-hexahydro-1H,15H-4,8-(azeno)-14,10-(metheno)pyrrolo[1,2-j][1,8,10]oxadiazacyclo-heptadecin-16-yl]ethanesulfonamide] |
| 93 | CCS(=O)(=O)N[C@@H]1[C@@H]2Cc3cccc(c3F)Oc3nc(c(F)cc3Cl)CNC(=O)N2CC1(F)F [Example 35, N-[(15aS,16R)-7-chloro-5,17,17,20-tetrafluoro-1-oxo-2,3,15a,16,17,18-hexahydro-1H,15H-4,8-(azeno)-10,14-(metheno)pyrrolo[1,2-j][1,8,10]oxadiazacyclo-heptadecin-16-yl]ethanesulfonamide] |
| 101 | CCS(=O)(=O)N[C@@H]1[C@@H]2Cc3cccc(c3F)Oc3nc(c(F)cc3C)CNC(=O)N2CC1(F)F [Example 32, N-[(15aS,16R)-5,17,17,20-tetrafluoro-7-methyl-1-oxo-2,3,15a,16,17,18-hexahydro-1H,15H-4,8-(azeno)-14,10-(metheno)pyrrolo[1,2-j][1,8,10]oxadiazacyclo-heptadecin-16-yl]ethanesulfonamide] |
| 114 | CCS(=O)(=O)N[C@@H]1[C@@H]2Cc3cc(F)cc(c3)Oc3nc(ccc3C)CNC(=O)N2CC1(F)F (relative stereo) [Example 89, N-[rel-(15aS,16R)-12,17,17-trifluoro-7-methyl-1-oxo-2,3,15a,16,17,18-hexahydro-1H,15H-4,8-(azeno)-14,10-(metheno)pyrrolo[1,2-j][1,8,10]oxadiazacyclo-heptadecin-16-yl]ethanesulfonamide (optical isomer)] |
| 101 | CCS(=O)(=O)N[C@H]1CCN2C(=O)NCc3ccc(C)c(n3)Oc3cccc(c3)C[C@@H]12 [Example 3, N-[(15aS,16S)-7-methyl-1-oxo-2,3,15a,16,17,18-hexahydro-1H,15H-4,8-(azeno)-10,14-(metheno)pyrrolo[1,2-j][1,8,10]oxadiazacyclo-heptadecin-16-yl]ethanesulfonamide] |
| 105 | CCS(=O)(=O)N[C@H]1CCN2C(=O)NCc3nc(c(F)cc3F)Oc3cccc(c3)C[C@@H]12 [Example 20, N-[(15aS,16S)-5,7-difluoro-1-oxo-2,3,15a,16,17,18-hexahydro-1H,15H-4,8-(azeno)-14,10-(metheno)pyrrolo[1,2-j][1,8,10]oxadiazacyclo-heptadecin-16-yl]ethanesulfonamide] |
| 103 | CCS(=O)(=O)N[C@H]1[C@@H](F)CN2C(=O)N(C)Cc3ccc(Cl)c(n3)Oc3cccc(c3)C[C@@H]12 [Example 70, N-[(15aS,16R,17S)-7-chloro-17-fluoro-2-methyl-1-oxo-2,3,15a,16,17,18-hexahydro-1H,15H-4,8-(azeno)-10,14-(metheno)pyrrolo[1,2-j][1,8,10]oxadiazacyclo-heptadecin-16-yl]ethanesulfonamide] |
| 97 | CCS(=O)(=O)N[C@H]1[C@@H](F)CN2C(=O)COc3ccc(C)c(n3)Oc3cccc(c3)C[C@@H]12 [Example 78, N-[(15aS,16R,17S)-17-fluoro-7-methyl-1-oxo-1,2,15a,16,17,18-hexahydro-15H-4,8-(azeno)-14,10-(metheno)pyrrolo[1,2-d][1,12,4]dioxazacyclo-heptadecin-16-yl]ethanesulfonamide] |
| 92 | CCS(=O)(=O)N[C@H]1[C@@H](F)CN2C(=O)NCc3ccc(Cl)c(n3)Oc3cccc(c3)C[C@@H]12 [Example 47, N-[(15aS,16R,17S)-7-chloro-17-fluoro-1-oxo-2,3,15a,16,17,18-hexahydro-1H,15H-4,8-(azeno)-14,10-(metheno)pyrrolo[1,2-j][1,8,10]oxadiazacyclo-heptadecin-16-yl]ethanesulfonamide] |

The next lines start with the compound.

| Compound | OX2R agonist activity (3 μM, %) [%] |
| --- | --- |
| Cc1ccc2nc1Oc1cccc(c1F)C[C@H]1[C@@H](NS(=O)(=O)CF)C(F)(F)CN1C(=O)NC2 [Example 19, 1-fluoro-N-[(15aS,16R)-17,17,20-trifluoro-7-methyl-1-oxo-2,3,15a,16,17,18-hexahydro-1H,15H-4,8-(azeno)-10,14-(metheno)pyrrolo[1,2-j][1,8,10]oxadiazacyclo-heptadecin-16-yl]methanesulfonamide] | 109 |
| CS(=O)(=O)N[C@@H]1[C@@H]2Cc3cccc(c3)Oc3nc(ccc3C(F)F)[C@@H]3C[C@@H]3C(=O)N2CC1(F)F (single isomer, unassigned) [Example 107] | 108 |
| Cc1cnc2nc1Oc1cccc(c1F)C[C@H]1[C@@H](NS(C)(=O)=O)C(F)(F)CN1C(=O)C1CCN21 (stereo partly drawn) [Example 52, N-[(15aS,16R)-17,17,21-trifluoro-7-methyl-20-oxo-1,2,15a,16,17,18,20,20a-octahydro-15H-4,8-(azeno)-10,14-(metheno)azeto[1,2-g]pyrrolo[1,2-j][1,5,7,10]oxatriazacyclo-heptadecin-16-yl]methanesulfonamide (optical isomer)] | 93 |
| CCS(=O)(=O)N[C@@H]1[C@@H]2Cc3cccc(c3F)Oc3nc(ccc3Cl)CNC(=O)N2CC1(F)F [Example 17, N-[(15aS,16R)-7-chloro-17,17,20-trifluoro-1-oxo-2,3,15a,16,17,18-hexahydro-1H,15H-4,8-(azeno)-14,10-(metheno)pyrrolo[1,2-j][1,8,10]oxadiazacyclo-heptadecin-16-yl]ethanesulfonamide] | 100 |
| CS(=O)(=O)N[C@H]1[C@@H](F)CN2C(=O)NCc3ccc(Cl)c(n3)Oc3cccc(c3F)C[C@@H]12 [Example 15, N-[(15aS,16R,17S)-7-chloro-17,20-difluoro-1-oxo-2,3,15a,16,17,18-hexahydro-1H,15H-4,8-(azeno)-14,10-(metheno)pyrrolo[1,2-j][1,8,10]oxadiazacyclo-heptadecin-16-yl]methanesulfonamide] | 104 |
| CS(=O)(=O)N[C@@H]1[C@@H]2Cc3cccc(c3F)Oc3nc(ccc3Cl)CN(CC(F)F)C(=O)N2CC1(F)F [Example 60, N-[(15aS,16R)-7-chloro-2-(2,2-difluoroethyl)-17,17,20-trifluoro-1-oxo-2,3,15a,16,17,18-hexahydro-1H,15H-4,8-(azeno)-14,10-(metheno)pyrrolo[1,2-j][1,8,10]oxadiazacyclo-heptadecin-16-yl]methanesulfonamide] | 104 |
| CS(=O)(=O)N[C@H]1[C@@H](F)CN2C(=O)COc3ccc(Cl)c(n3)Cc3cccc(c3F)C[C@@H]12 [Example 67, N-[(15aS,16R,17S)-7-chloro-17,20-difluoro-1-oxo-1,2,15a,16,17,18-hexahydro-9H,15H-4,8-(azeno)-14,10-(metheno)pyrrolo[1,2-d][1,4]oxazacycloheptadecin-16-yl]methanesulfonamide] | 103 |
| CS(=O)(=O)N[C@@H]1[C@@H]2Cc3ccc(F)c(c3)Oc3nc(ccc3Cl)OCC(=O)N2CC1(F)F (relative stereo) [Example 95, N-[rel-(15aS,16R)-7-chloro-11,17,17-trifluoro-1-oxo-1,2,15a,16,17,18-hexahydro-15H-4,8-(azeno)-14,10-(metheno)pyrrolo[1,2-d][1,12,4]dioxazacyclo-heptadecin-16-yl]methanesulfonamide (optical isomer)] | 103 |
| CCS(=O)(=O)N[C@H]1[C@@H](F)CN2C(=O)CCc3ccc(Cl)c(n3)Oc3cccc(c3F)C[C@@H]12 [Example 82, N-[(1R,2S,19aS)-11-chloro-2,20-difluoro-5-oxo-2,3,6,7,19,19a-hexahydro-1H,5H-12,8-(azeno)-14,18-(metheno)pyrrolo[2,1-h][1,9]oxazacycloheptadecin-1-yl]ethanesulfonamide] | 101 |
| CS(=O)(=O)N[C@@H]1[C@@H]2Cc3cccc(c3F)Oc3nc(ncc3Cl)OCC(=O)N2CC1(F)F [Example 64, N-[(15aS,16R)-7-chloro-17,17,20-trifluoro-1-oxo-1,2,15a,16,17,18-hexahydro-15H-4,8-(azeno)-10,14-(metheno)pyrrolo[2,1-n][1,7,3,15]dioxadiazacyclo-heptadecin-16-yl]methanesulfonamide] | 105 |
